The text below walks through data of patent EP1179050B1, “METHOD FOR THE PURIFICATION OF PROTEIN KINASE BY AFFINITY CHROMATOGRAPHY” (University of Tartu, priority 1999, dated 2000).

In test [1] the target is Protein kinase C β isoform (PKC). The test is described as follows: Protein kinase C β (PKC) activity inhibition, [γ-32P]ATP phosphocellulose paper assay. It is filed as biochemical, pig. Particulars: 30°C, pH 7.5, 15 µM substrate peptide, 30 µM [γ-32P] ATP.
The target in test [2] is Ca^2+-dependent protein kinase (CDPK-1). The test is described as follows: Ca2+-dependent protein kinase (CDPK-1) activity inhibition, [γ-32P]ATP phosphocellulose paper assay. Type of test: biochemical, maize. Particulars: 30°C, pH 7.5, 50 µM substrate peptide, 30 µM [γ-32P]ATP.
Another test has as its target protein kinase CK1. Nature of the test: Protein kinase CK1 activity inhibition, casein substrate, [γ-32P]ATP phosphocellulose paper assay. It is filed as biochemical, rat. The settings on record: 30°C, pH 7.5, 1 mg/mL casein, 30 µM [γ-32P] ATP.
Test [3] deals with catalytic subunit of murine PKA (Mus musculus, UniProt P05132). Nature of the test: Protein kinase A (PKA) activity inhibition, [γ-32P]ATP phosphocellulose paper assay. It is filed as biochemical.
Another test addresses protein kinase CK2 (Rattus norvegicus, UniProt P19139). The test is described as follows: Protein kinase CK2 activity inhibition, casein substrate, [γ-32P]ATP phosphocellulose paper assay. It is filed as biochemical. The settings on record: 30°C, pH 7.5, 1 mg/mL casein, 30 µM [γ-32P] ATP; n. i. means no inhibition at 100 µM concentration of ligand.
Test [4] addresses T1, Protein Kinase A (Mus musculus, UniProt P05132). Nature of the test: Inhibition constant for PKA (Table 3). It is filed as biochemical.
In another test the target is PKA (Mus musculus, UniProt P05132). Particulars: literature values; read-out: Kd (affinity to PKA); cited from earlier work.
Test [5] concerns the target T1, Protein Kinase A. The test is described as follows: Inhibition constant for PKA (Table 3). It is filed as biochemical. The source holds these as a separate data set.
The target of another test is Protein Kinase C. The test is described as follows: Inhibition constant for PKC (Table 3). Type of test: biochemical.

Read-outs that look alike come from different tables or passages of the source. *1 amine or outer side, *2 acyl side, *3 side chain or, on linkers, in order; H or OH if unused. Where a SMILES comes first, the peptide text is derived from it. [ ]: non-standard residue; d: D form. The star is where a group is joined. Adenosine(5'-uronoyl) = Nc1ncnc2c1ncn2[C@@H]1O[C@H](C(=O)*)[C@@H](O)[C@H]1O; X1 = Nc1ncnc2c1ncn2[C@@H]1O[C@H](C(=O)NC[C@H](N)C(=O)*)[C@@H](O)[C@H]1O; βAsp = O=C(O)[C@H](CC(=O)[*:2])N[*:1]; Dap = NC[C@H](N)C(=O)O

protein kinase CK2, sequence (P19139 whole entry): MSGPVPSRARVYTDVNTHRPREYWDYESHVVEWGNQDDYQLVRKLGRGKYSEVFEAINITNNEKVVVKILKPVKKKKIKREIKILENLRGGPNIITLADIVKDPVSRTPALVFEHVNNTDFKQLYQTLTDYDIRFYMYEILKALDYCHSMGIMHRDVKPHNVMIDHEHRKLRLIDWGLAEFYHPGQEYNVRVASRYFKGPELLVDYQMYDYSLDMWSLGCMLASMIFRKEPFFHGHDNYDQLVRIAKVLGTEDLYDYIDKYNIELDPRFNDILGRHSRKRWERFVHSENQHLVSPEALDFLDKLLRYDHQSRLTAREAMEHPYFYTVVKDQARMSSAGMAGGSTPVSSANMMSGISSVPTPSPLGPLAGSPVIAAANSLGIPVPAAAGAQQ

`C[C@H](NC(=O)C[C@H](NC(=O)C[C@H](NC(=O)[C@H]1O[C@@H](n2cnc3c(N)ncnc32)[C@H](O)[C@@H]1O)C(=O)O)C(=O)O)C(=O)N[C@@H](CCCNC(=N)N)C(=O)N[C@@H](CCCNC(=N)N)C(=O)N[C@@H](CCCNC(=N)N)C(=O)N[C@@H](CCCNC(=N)N)C(=O)N[C@@H](CCCNC(=N)N)C(=O)N[C@@H](CCCNC(=N)N)C(=O)O` [Inhibitor III, AdoC(β-Asp)2AlaArg6] ({Adenosine(5'-uronoyl)-βAsp-βAsp}-ARRRRRR-OH; C-terminus assumed): the IC50 in [1] was 27 ± 2 µM; in test [2], more than 50 µM; at protein kinase CK1 it was more than 30 µM. Take `C[C@H](NC(=O)CCNC(=O)CCNC(=O)[C@H]1O[C@@H](n2cnc3c(N)ncnc32)[C@H](O)[C@@H]1O)C(=O)N[C@@H](CCCNC(=N)N)C(=O)N[C@@H](CCCNC(=N)N)C(=O)N[C@@H](CCCNC(=N)N)C(=O)N[C@@H](CCCNC(=N)N)C(=O)N[C@@H](CCCNC(=N)N)C(=O)N[C@@H](CCCNC(=N)N)C(=O)O` [Inhibitor I, AdoC(β-Ala )2AlaArg6]: the concentration for half-maximal inhibition (IC50) was 4.3 ± 0.3 µM in [3] and more than 30 µM at protein kinase CK2. For `N=C(N)NCCC[C@H](NC(=O)[C@H](CCCNC(=N)N)NC(=O)[C@H](CCCNC(=N)N)NC(=O)[C@H](CCCNC(=N)N)NC(=O)[C@H](CCCNC(=N)N)NC(=O)[C@H](CCCNC(=N)N)NC(=O)CCCCCNC(=O)[C@H]1O[C@@H](n2cnc3c(N)ncnc32)[C@H](O)[C@@H]1O)C(=O)O` [Inhibitor VII, AdoC(Ahx)Arg6], the figures for the IC50 (in test [3]; on protein kinase CK2) were 0.12 ± 0.02 µM and more than 30 µM, respectively. The affinity at Protein Kinase A [4], expressed as Ki, was 40.1 nM. Regarding `Nc1ncnc2nc[nH]c12` [adenine], the Kd on PKA was 30 µM. `CC(=O)NCCCCCC(=O)N[C@@H](CCCN=C(N)N)C(=O)N[C@@H](CCCNC(=N)N)C(=O)N[C@@H](CCCNC(=N)N)C(=O)N[C@@H](CCCNC(=N)N)C(=O)N[C@@H](CCCNC(=N)N)C(=O)N[C@@H](CCCN=C(N)N)C(=O)O` [Ac(amino-hexanoic acid)Arg6, Ac(Ahx)Arg6]: affinity on Protein Kinase A [4] was put at a Ki of 27900 nM. Turning to `N=C(N)NCCC[C@H](NC(=O)[C@H](CCCNC(=N)N)NC(=O)[C@H](CCCNC(=N)N)NC(=O)[C@H](CCCNC(=N)N)NC(=O)[C@H](CCCNC(=N)N)NC(=O)[C@H](CCCNC(=N)N)NC(=O)CNC(=O)[C@H]1O[C@@H](n2cnc3c(N)ncnc32)[C@H](O)[C@@H]1O)C(=O)O` [Inhibitor IV, AdoCGlyArg6], the values for the IC50 (in test [3]; on protein kinase CK2) were 4 ± 0.2 µM and more than 30 µM, respectively. For `N=C(N)NCCC[C@H](NC(=O)[C@H](CCCNC(=N)N)NC(=O)[C@H](CCCNC(=N)N)NC(=O)[C@H](CCCNC(=N)N)NC(=O)[C@H](CCCNC(=N)N)NC(=O)[C@H](CCCNC(=N)N)NC(=O)CCNC(=O)[C@H]1O[C@@H](n2cnc3c(N)ncnc32)[C@H](O)[C@@H]1O)C(=O)O` [Inhibitor V, AdoC(β-Ala)Arg6], it took 1.8 ± 0.1 µM to reach half-maximal inhibition in [3] (IC50). Also, the “IC50 (µM) CK2” value on protein kinase CK2 is “n. i.^f)”. As for `N=C(N)NCCC[C@H](NC(=O)[C@H](CCCNC(=N)N)NC(=O)[C@H](CCCNC(=N)N)NC(=O)[C@H](CCCNC(=N)N)NC(=O)[C@H](CCCNC(=N)N)NC(=O)[C@H](CCCNC(=N)N)NC(=O)CCCCCCCCCCNC(=O)[C@H]1O[C@@H](n2cnc3c(N)ncnc32)[C@H](O)[C@@H]1O)C(=O)O` [Inhibitor IX, AdoC(Aun)Arg6], the “IC50 (µM) CK2” value at protein kinase CK2 was “n. i.^f)”. `N=C(N)NCCC[C@H](NC(=O)[C@H](CCCNC(=N)N)NC(=O)[C@H](CCCNC(=N)N)NC(=O)[C@H](CCCNC(=N)N)NC(=O)[C@H](CCCNC(=N)N)NC(=O)[C@H](CCCNC(=N)N)NC(=O)CCCCCCCNC(=O)[C@H]1O[C@@H](n2cnc3c(N)ncnc32)[C@H](O)[C@@H]1O)C(=O)O` [Inhibitor VIII, AdoC(Aoc)Arg6]: the IC50 in [3] is 0.24 ± 0.02 µM; on protein kinase CK2, more than 30 µM. Turning to `NC(N)=NCCC[C@H](NC(=O)[C@H](CCCN=C(N)N)NC(=O)[C@H](CCCN=C(N)N)NC(=O)[C@H](CCCN=C(N)N)NC(=O)[C@H](CCCN=C(N)N)NC(=O)[C@@H](N)CCCN=C(N)N)C(=O)O` [Arg6], at Protein Kinase A [4], the Ki was 29500 nM. In the case of `C[C@H](NC(=O)[C@@H](N)CNC(=O)[C@@H](N)CNC(=O)[C@H]1O[C@@H](n2cnc3c(N)ncnc32)[C@H](O)[C@@H]1O)C(=O)N[C@@H](CCCNC(=N)N)C(=O)N[C@@H](CCCNC(=N)N)C(=O)N[C@@H](CCCNC(=N)N)C(=O)N[C@@H](CCCNC(=N)N)C(=O)N[C@@H](CCCNC(=N)N)C(=O)N[C@@H](CCCNC(=N)N)C(=O)O` [Inhibitor II, AdoC(Dpr)2AlaArg6] (H-[Dap](X1)ARRRRRR-OH; C-terminus assumed), the IC50 in test [2] came out at 31 ± 3 µM; on protein kinase CK1, 5.6 ± 0.4 µM. For `N=C(N)NCCC[C@H](NC(=O)[C@H](CCCNC(=N)N)NC(=O)[C@H](CCCNC(=N)N)NC(=O)[C@H](CCCNC(=N)N)NC(=O)[C@H](CCCNC(=N)N)NC(=O)[C@H](CCCNC(=N)N)NC(=O)CCCNC(=O)[C@H]1O[C@@H](n2cnc3c(N)ncnc32)[C@H](O)[C@@H]1O)C(=O)O` [Inhibitor VI, AdoC(GABA)Arg6], the IC50 in test [3] is 1.3 ± 0.2 µM; on protein kinase CK2, more than 30 µM.

For `Nc1ncnc2c1ncn2[C@@H]1O[C@H](CO)[C@@H](O)[C@H]1O` [Adenosine], the values for the Ki at Protein Kinase A [5] and on Protein Kinase C were 43100 nM and 43200 nM, respectively.

As for `Nc1ncnc2c1ncn2[C@@H]1O[C@H](COP(=O)(O)OP(=O)(O)OP(=O)(O)O)[C@@H](O)[C@H]1O` [ATP, adenosine triphosphate], the Kd at PKA is 25 µM.

By IC50 is commonly meant the concentration needed to halve the response being measured. By Ki is commonly meant a dissociation constant, usually derived from enzyme kinetics or from competition with a known ligand. Usually Kd stands for the constant that tells how readily two partners part at equilibrium.
